Experimental data from article PMC5459446, “A phase I study of single-agent perifosine for recurrent or refractory pediatric CNS and solid tumors” (PLoS ONE, 2017).
Values joined by “and” are separate entries in the source; they are usually repeats but may differ in a detail not shown here. Equal values may be shown once. Where a name gives a salt, the structure may show the parent alone.

Experiments:
[1] = test system: pediatric patients with recurrent or refractory CNS and solid tumors; test: Phase I dose-escalation toxicity assessment (Common Toxicity Criteria v3.0, DLT, MTD); assay type: in vivo
Procedure: This was a standard 3+3 phase I dose escalation study (NCT00776867) investigating 5 dose levels. Perifosine was only available as 50-mg tablets, complicating the phase I dose escalation scheme. A loading dose was administered on day 1 and subsequent maintenance doses were administered every 1 to 4 days, depending on dose level and BSA, with the goal of achieving dose levels of 25, 50, 75, 100, and 125 mg/m^2/day (Tables 1–5). This dosing scheme, incorporating drug administration as infrequently as every 4 days, was made possible by perifosine’s long half-life. Treatment was continued until disease progression, intolerable toxicity, DLT, or death was encountered. Subjects experiencing DLT but with evidence of clinical benefit at dose level 1, 2, or 3 were eligible to remain on study with a dose level reduction. […]
Toxicity was assessed according to the Common Toxicity Criteria (version 3.0) of the National Cancer Institute, National Institutes of Health. DLT was defined as (1) any non-hematological toxicity grade ≥ 3 [except for grade 3 nausea, vomiting, and diarrhea that could be controlled within 24 hours with supportive care measures]; (2) grade 4 neutropenia on 2 consecutive blood counts drawn at least 72 hours apart; (3) grade 4 febrile neutropenia [ANC < 1000/μL and fever ≥ 38.5°C] or grade ≥ 3 documented infection with ANC < 1000/μL, or; (4) a platelet count < 25,000/μL. Grade ≥ 3 decrease in hemoglobin that could be corrected to at least 8 g/dl (grade 2) by transfusion of red blood cells, grade ≥ 3 leukopenia in the absence of dose-limiting neutropenia, and grade ≥ 3 lymphopenia were not considered DLTs.
The DLT assessment period was the first 28-day cycle. If therapy was discontinued during the first cycle for reasons other than toxicity, an additional subject could be enrolled at that dose level to ensure adequate evaluation of toxicity. No intra-patient dose escalation was permitted.

[2] = Steady state plasma pharmacokinetics (LC/electrospray MS); assay type: in vivo, human
Procedure: Samples for pharmacokinetic analysis were obtained at baseline and during weeks 2 through 4 of cycle 1. At each time point, heparinized blood was collected into a plastic vacutainer to minimize adhesion of perifosine. Plasma was separated by centrifugation and stored in polypropylene cryovials at -70°C until assayed. Perifosine in plasma was measured by a validated reversed phase liquid chromatography/electrospray mass spectrometry method as developed and validated by Woo et al..

[3] = test system: medulloblastoma cell lines; parameters: method as in PMID 19887560, PMID 26269112; conditions: cited from earlier work
[4] = test system: telomerase; parameters: method as in PMID 26307677; conditions: cited from earlier work
[5] = 23 patients, all dose levels, at least possibly related
[6] = 23 patients, all dose levels, at least possibly related, listed as Perifosine

## CCCCCCCCCCCCCCCCCCOP(=O)([O-])OC1CC[N+](C)(C)CC1 [perifosine, 1,1-Dimethyl-4-[[(octadecyloxy)hydroxyphosphinyl]oxy]-piperidinium inner salt]
[1]; 5 dose levels, 25 to 125 mg/m2/day
  MTD: not defined
[1]; [5]
  ALT, Any Grade, %: 39.13%
  ALT, Any Grade, No.: 9
  ALT, Grade 3 or 4, %: 0.00%
  ALT, Grade 3 or 4, No.: 0
  AST, Any Grade, %: 26.09%
  AST, Any Grade, No.: 6
  AST, Grade 3 or 4, %: 0.00%
  Decreased hemoglobin, Grade 3 or 4, %: 0.00%
  Decreased hemoglobin, Grade 3 or 4, No.: 0
  Decreased leukocytes, Any Grade, %: 47.83%
  Decreased leukocytes, Any Grade, No.: 11
  Decreased leukocytes, Grade 3 or 4, %: 0.00%
  Decreased leukocytes, Grade 3 or 4, No.: 0
  Decreased neutrophils (neutropenia), Grade 3 or 4, %: 8.7%
  Decreased neutrophils, Any Grade, %: 26.09%
  Decreased neutrophils, Any Grade, No.: 6
  Decreased neutrophils, Grade 3 or 4, No.: 2
  Decreased platelets, Any Grade, %: 21.74%
  Decreased platelets, Any Grade, No.: 5
  Decreased platelets, Grade 3 or 4, %: 0.00%
  Decreased platelets, Grade 3 or 4, No.: 0
  Diarrhea, Any Grade, %: 43.48%
  Diarrhea, Any Grade, No.: 10
  Diarrhea, Grade 3 or 4, %: 0.00%
  Diarrhea, Grade 3 or 4, No.: 0
  Fatigue, Any Grade, %: 65.22%
  Fatigue, Any Grade, No.: 15
  Fatigue, Grade 3 or 4, %: 4.35%
  Fatigue, Grade 3 or 4, No.: 1
  Fever, Any Grade, %: 21.74%
  Fever, Any Grade, No.: 5
  Fever, Grade 3 or 4, %: 4.35%
  Fever, Grade 3 or 4, No.: 1
  Flatulence, Any Grade, %: 13.04%
  Flatulence, Any Grade, No.: 3
  Flatulence, Grade 3 or 4, %: 0.00%
  Flatulence, Grade 3 or 4, No.: 0
  Hyperglycemia, Any Grade, %: 60.87%
  Hyperglycemia, Any Grade, No.: 14
  Hyperglycemia, Grade 3 or 4, %: 4.35%
  Hyperglycemia, Grade 3 or 4, No.: 1
  Hyperuricemia, Any Grade, %: 4.35%
  Hyperuricemia, Any Grade, No.: 1
  Hyperuricemia, Grade 3 or 4, %: 4.35%
  Hyperuricemia, Grade 3 or 4, No.: 1
  Hypocalcemia, Any Grade, %: 21.74%
  Hypocalcemia, Any Grade, No.: 5
  Hypocalcemia, Grade 3 or 4, %: 0.00%
  Hypocalcemia, Grade 3 or 4, No.: 0
  Hypokalemia, Any Grade, %: 21.74%
  Hypokalemia, Any Grade, No.: 5
  Hypokalemia, Grade 3 or 4, %: 0.00%
  Hypokalemia, Grade 3 or 4, No.: 0
  Hypomagnesemia, Any Grade, %: 13.04%
  Hypomagnesemia, Any Grade, No.: 3
  Hypomagnesemia, Grade 3 or 4, %: 0.00%
  Hypomagnesemia, Grade 3 or 4, No.: 0
  Hyponatremia, Any Grade, %: 21.74%
  Hyponatremia, Any Grade, No.: 5
  Hyponatremia, Grade 3 or 4, %: 0.00%
  Hyponatremia, Grade 3 or 4, No.: 0
  Hypophosphatemia, Any Grade, %: 13.04%
  Hypophosphatemia, Any Grade, No.: 3
  Hypophosphatemia, Grade 3 or 4, %: 0.00%
  Hypophosphatemia, Grade 3 or 4, No.: 0
  Infection URI, Any Grade, %: 17.39%
  Infection URI, Any Grade, No.: 4
  Infection URI, Grade 3 or 4, %: 0.00%
  Infection URI, Grade 3 or 4, No.: 0
  Infection—catheter related, Any Grade, %: 4.35%
  Infection—catheter related, Any Grade, No.: 1
  Infection—catheter related, Grade 3 or 4, %: 4.35%
  Infection—catheter related, Grade 3 or 4, No.: 1
  Lymphopenia, Any Grade, %: 17.39%
  Lymphopenia, Any Grade, No.: 4
  Lymphopenia, Grade 3 or 4, %: 0.00%
  Lymphopenia, Grade 3 or 4, No.: 0
  Nausea, Any Grade, %: 65.22%
  Nausea, Any Grade, No.: 15
  Nausea, Grade 3 or 4, %: 0.00%
  Nausea, Grade 3 or 4, No.: 0
  Pain—abdomen NOS, Any Grade, %: 21.74%
  Pain—abdomen NOS, Any Grade, No.: 5
  Pain—abdomen NOS, Grade 3 or 4, %: 0.00%
  Pain—abdomen NOS, Grade 3 or 4, No.: 0
  Pain—stomach, Any Grade, %: 13.04%
  Pain—stomach, Any Grade, No.: 3
  Pain—stomach, Grade 3 or 4, %: 0.00%
  Pain—stomach, Grade 3 or 4, No.: 0
  Vomiting, Any Grade, %: 56.52%
  Vomiting, Any Grade, No.: 13
  Vomiting, Grade 3 or 4, %: 0.00%
  Vomiting, Grade 3 or 4, No.: 0
[1]; [6]
  Decreased leukocytes, Any Grade, %: 47.8%
  Fatigue, Any Grade, %: 65.2%
  Hyperglycemia, Any Grade, %: 60.9%
  Nausea, Any Grade, %: 65.2%
  Vomiting, Any Grade, %: 56.5%
[1]; grade 4 hyperuricemia at dose level 4, 23 patients, 5 dose levels
  Number of DLTs: one
[1]; human, in vivo
  AST, Grade 3 or 4, No.: 0
  Anorexia, Any Grade, %: 30.43%
  Anorexia, Any Grade, No.: 7
  Anorexia, Grade 3 or 4, %: 0.00%
  Anorexia, Grade 3 or 4, No.: 0
  Constipation, Any Grade, %: 13.04%
  Constipation, Any Grade, No.: 3
  Constipation, Grade 3 or 4, %: 0.00%
  Constipation, Grade 3 or 4, No.: 0
  Decreased hemoglobin, Any Grade, %: 43.48%
  Decreased hemoglobin, Any Grade, No.: 10
[2]; dose level 1, target 25 mg/m^2/day, patients 1,2,3, steady state
  Average Plasma Level (standard deviation): 6.8 (1.6) μg/mL
[2]; dose level 2, target 50 mg/m^2/day, patients 4,5,6, steady state
  Average Plasma Level (standard deviation): 14.4 (2.5) μg/mL and 39.0 (6.8) μM
[2]; dose level 3, target 75 mg/m^2/day, patients 7-11, steady state
  Average Plasma Level (standard deviation): 11.5 (3.1) μg/mL and 31.1 (8.5) μM
[2]; dose level 4, target 100 mg/m^2/day, patients 12-17, steady state
  Average Plasma Level (standard deviation): 12.7 (6.1) μg/mL and 34.4 (16.5) μM
[2]; dose level 5, target 125 mg/m^2/day, patients 18-22, steady state
  Average Plasma Level (standard deviation): 12.1 (3.5) μg/mL and 32.8 (9.5) μM
[2]; observed in most patients
  Steady state plasma levels: above 10 μM
[2]; pediatric patients, steady state plasma levels
  Maintenance dose at which dose exposure plateau is reached: 50 mg/m^2/day
[3]
  IC50: 25 µM
[4]
  Doses inhibiting telomerase activity: low micromolar
